Results: patent publication US20160207951A1, “ORGANOMETALLIC COMPOUNDS FOR USE AS ANTHELMINTICS” (UNIVERSITÄT ZÜRICH, priority 2013, published 2016)
Like-named read-outs stand apart in the source and are kept apart here.

Legend:
[1] = system: Haemonchus contortus; assay: activity in vitro against Haemonchus contortus (egg hatch and larval development)
[2] = system: Dirofilaria immitis; assay: activity in vitro against Dirofilaria immitis microfilariae (motility); design: dose or concentration left out as unconfirmed
[3] = system: Trichostrongylus colubriformis; assay: activity in vitro against Trichostrongylus colubriformis (egg hatch and larval development); design: dose or concentration left out as unconfirmed
[4] = system: human lung fibroblasts MRC-5; assay: fluorometric cell viability assay (Resazurin) in MRC-5; conditions: read-out: IC50 in MRC-5
Procedure: (§1) Human cervical carcinoma cells (HeLa) were cultured in DMEM (Gibco) supplemented with 5% fetal calf serum (FCS, Gibco), 100 U/ml penicillin, 100 μg/ml streptomycin at 37° C. and 5% CO2. The normal human fetal lung fibroblast MRC-5 cell line was maintained in F-10 medium (Gibco) supplemented with 10% FCS (Gibco), 200 mmol/l L-Glutamine, 100 U/ml penicillin, and 100 μg/ml streptomycin at 37° C. and 5% CO2. To establish the anticancer potential of the compounds they were tested in one cell line, namely HeLa by a fluorometric cell viability assay using Resazurin (Promocell GmbH). […] 1 day before treatment, cells were plated in triplicates in 96-well plates at a density of 4×10^3 cells/well in 100 μl for HeLa and 7×10^3 cells/well for MRC-5 cells. Cells were treated with increasing concentrations of the compounds for 2 days. After 2 days, medium and drug were removed and 100 ml fresh medium containing Resazurin (0.2 mg/ml final concentration) were added. After 4 h of incubation at 37′C, the highly red fluorescent dye resorufin's fluorescence was quantified at 590 nm emission with 540 nm excitation wavelength in the SpectraMax M5 microplate Reader.

[5] = system: H. contortus; assay: larval development assay, number of L3 H. contortus; design: species or system Haemonchus contortus
[6] = system: C. elegans; assay: C. elegans movement inhibition assay
Procedure: Asynchronous N2 C. elegans worms (Bristol) were maintained on nematode growth medium (NGM) agar, seeded with a lawn on OP50 E. coli as a food-source, according to standard protocol (Maintenance of C. elegans; Stiernagle, T., Ed.; WormBook, 2006.). Worms were harvested from NGM plates by washing with M9 buffer (42 mmol/l Na2HPO4, 22 mmol/l KH2PO4, 86 mmol/l NaCl and 1 mmol/MgSO4), aspiration and collection in a 10 mL tube (Falcon). The average number of worms in 5 μL of this suspension was calculated by transferring 4×5 μL aliquots to a glass slide (Menzel Glaser), and worms were enumerated under a compound microscope (Olympus CH30). To adjust the suspension to contain 1 worm per μL, M9 buffer was either added or removed after pelleting worms at 600×g for 30 sec.
A volume of 70 μL of M9 buffer was added to each well in a 96-well plate, using a multichannel pipettor. A volume of 20 μL of worm suspension was added to each well using a single-channel pipettor, with a trimmed pipette tip (increased aperture to minimize damage to worms). The worm suspension was resuspended by flicking after every three wells to maintain consistency. The compounds were stored at 4° C., and diluted in dimethyl sulfoxide (DMSO) to achieve a 100 mmol/l concentration 1 hr prior to addition to assay. These stock solutions were diluted further in DMSO to create a series of 20 mmol/l, 2 mmol/l, 0.02 mmol/l and 0.002 mmol/l which were subsequently diluted 1:20 in M9 buffer to create 1 mmol/l, 0.1 mmol/l, 1 μmol/l and 0.1 μmol/l (all 5% (v/v) DMSO). […] A Zolvix (monepantel) dilution series was simultaneously created following the same dilution schema, and used as a positive control; 10 μL of 10% DMSO was added to achieve 1% DMSO vehicle control. 10 μL M9 was added to negative control wells (see FIG. 1). Plates were incubated at room temperature (22-24° C.) overnight at 20° C.
Immobile worms were counted as a percentage of total worms in each well using an Olympus SZ30 dissecting microscope. The immobile fraction was subtracted from the total, and this remainder was divided by the total to give a percentage of live worms per well.

[7] = system: human cervical cancer HeLa; assay: fluorometric cell viability assay (Resazurin) in HeLa; conditions: read-out: IC50 in HeLa
Procedure: as §1

[8] = MRC-5 cells, treated for 2 days, Resazurin
[9] = HeLa cells, treated for 2 days, Resazurin

Compound | Activity against Haemontus Contortus at 10 [mg/mL] [1] [%] | Activity against Dirofilaria immitis at 10 [mg/mL] [2] [%] | Activity against Trychostrongylus colubriformis at 10 [mg/mL] [3] [%] | IC50 [4, 8] [µM] | Number of L3 H. contortus/100 μM [5] | Mobility in C. elegans at 50 μM [6] [%] | IC50 [7, 9] [µM] | IC50 ([4]; Homo sapiens, MRC5, 48 h) [µM] | IC50 ([7]; Homo sapiens, HeLa, 48 h) [µM]
2-(Hydroxymethyl)ruthenocenecarboxaldehyde oxime [Compound 32] | 35 | 12 | 33 | – | – | – | – | – | –
2-(hydroxymethyl)ferrocenecarboxaldehydeoxime [Compound 29] | 47 | 12 | 49 | – | – | – | – | – | –
2-(hydroxymethyl)ferrocenylmethylamine [Compound 30] | 24 | 0 | 11 | – | – | – | – | – | –
O=C(NC[c-]1cccc1CO)c1ccc(SC(F)(F)F)cc1.[Fe+2].c1cc[cH-]c1 (centres unmarked) [Compound 3] | 24 | 0 | 13 | 44.6 | >100 | 4 | 20 | – | –
O=[C]=[Co]12(=[C]=O)(=[C]=O)[CH]3[C]1(CNC(=O)c1ccc(SC(F)(F)F)cc1)[Co]32(=[C]=O)(=[C]=O)=[C]=O (centres unmarked) [Compound 4] | – | 68 | 44 | – | 76.7 | 2 | – | – | –
O=[C]=[Co]12(=[C]=O)(=[C]=O)[C]3(CO)[C]1(CNC(=O)c1ccc(SC(F)(F)F)cc1)[Co]32(=[C]=O)(=[C]=O)=[C]=O (centres unmarked) [Compound 5] | 64 | 45 | 77 | – | – | – | – | – | –
N#Cc1ccc(C(F)(F)F)c(OCc2ccc[c-]2CNC(=O)c2ccc(SC(F)(F)F)cc2)c1.[Fe+2].c1cc[cH-]c1 (centres unmarked) [Compound 6, N-(2-((5-cyano-2-(trifluormethyl)phenoxy)methyl)ferrocenyl)-4-((trifluoromethyl)thio)benzamide] | 20 | – | 31 | 26.7 | >100 | 1 | 27.2 | – | –
N#Cc1ccc(C(F)(F)F)c(OC[C]23[C]4(CNC(=O)c5ccc(SC(F)(F)F)cc5)[Co]2(=[C]=O)(=[C]=O)(=[C]=O)[Co]43(=[C]=O)(=[C]=O)=[C]=O)c1 (centres unmarked) [Compound 7, Dicobalthexacarbonyl-N-(4-(5-cyano-2-(trifluoromethyl)phenoxy)but-2-en-1-yl)-4-((trifluoromethyl)thio)benzamide] | 63 | 100 | 25 | – | – | – | 26.8 | – | –
CC(C#N)(CO)NC(=O)[c-]1cccc1.[Fe+2].c1cc[cH-]c1 (centres unmarked) [Compound 10] | – | – | 57 | – | >100 | 4 | – | – | –
N#Cc1ccc(C(F)(F)F)c(OCC#CCNC(=O)c2ccc(SC(F)(F)F)cc2)c1 [Compound 13, N-(4-(5-cyano-2-(trifluoromethyl)phenoxy)but-2-yn-1-yl)-4-((trifluoromethyl)thio)benzamide] | 52 | 19 | 49 | – | – | – | – | 96.4 | 30.6
O=C(NCC#CCO)c1ccc(SC(F)(F)F)cc1 [Compound 14, N-(4-hydroxybut-2-yn-1-yl)-4-((trifluoromethyl)thio)benzamide] | 32 | 46 | 51 | – | – | – | – | – | > 100
C#CCNC(=O)c1ccc(SC(F)(F)F)cc1 [Compound 15] | 51 | 28 | 51 | – | >100 | 3 | – | – | –
CN(C)Cc1ccc[c-]1C=O.[Fe+2].c1cc[cH-]c1 (centres unmarked) [Compound 27, 2-(N,N-dimethylaminomethylferrocene)carboxaldehyde] | 39 | 18 | 44 | – | – | – | – | – | –
CC(=O)OCc1ccc[c-]1C=O.[Fe+2].c1cc[cH-]c1 (centres unmarked) [Compound 28, 2-(acetoxymethylferrocene)carboxaldehyde] | 14 | 15 | 6 | – | – | – | – | – | –
O=C[c-]1cccc1CO.[Fe+2].c1cc[cH-]c1 (centres unmarked) [Compound 31, 2-(Hydroxymethylferrocene)carboxaldehyde] | 40 | – | 37 | – | – | – | – | – | –
CC(=O)OCc1ccc[c-]1C=O.[Ru+2].c1cc[cH-]c1 (centres unmarked) [Compound 36, 2-(Acetoxymethylruthenocene)carboxaldehyde] | 52 | 11 | 54 | – | – | – | – | – | –
I[c-]1cccc1.N#CS[c-]1cccc1.[Ru+2] [Compound 40, 1,1′-Thiocyanatoiodruthenocene] | – | 98 | 55 | – | – | – | – | – | –
N-(2-cyano-1-hydroxypropan-2-yl)ruthenoceneamide [Compound 41] | 0 | – | 0 | – | – | – | – | – | –
N-ferrocenyl-4-((trifluoromethyl)thio)benzamide [Compound 2] | – | 69 | 80 | 42 | >100 | 0 | 17.6 | – | –
Thiocyanatoruthenocene [Compound 39] | 0 | 66 | 0 | – | – | – | – | – | –
Trifluoromethylthioferrocene [Compound 38] | 0 | 31 | 0 | – | – | – | – | – | –
